Results reported in patent US20150197492A1, “NOVEL INDENO[1,2-c]QUINOLIN-11-ONE DERIVATIVES, PREPARATION METHOD AND APPLICATION THEREOF” (National Defense Medical Center, priority 2014, published 2015).

What was measured:
Format in all cases: cell-based
SW-620 = test: cells; details: SW-620 (Colon Cancer), 10 μM, 48 hours
IGROV1 = test: cells; details: IGROV1 (Ovarian Cancer), 10 μM, 48 hours
T-47D = test: cells; details: T-47D (Breast Cancer), 10 μM, 48 hours
MCF7 = test: cells; details: MCF7 (Breast Cancer), 10 μM, 48 hours
SN12C = test: cells; details: SN12C (Renal Cancer), 10 μM, 48 hours
K-562 = test: cells; details: K-562 (Leukemia), 10 μM, 48 hours
[1] = system: 55 to 60 cancer cell lines; details: 10 μM, 48 hours, all tested cell lines
SK-MEL-28 = test: cells; details: SK-MEL-28 (Melanoma), 10 μM, 48 hours
A498 = test: cells; details: A498 (Renal Cancer), 10 μM, 48 hours
UACC-257 = test: cells; details: UACC-257 (Melanoma), 10 μM, 48 hours
SK-OV-3 = test: cells; details: SK-OV-3 (Ovarian Cancer), 10 μM, 48 hours
HT29 = test: cells; details: HT29 (Colon Cancer), 10 μM, 48 hours
HCT-15 = test: cells; details: HCT-15 (Colon Cancer), 10 μM, 48 hours
human PC-3 cells = test: Sulforhodamine B (SRB) assay, cytotoxicity against PC-3 cells; details: SRB assay, PC-3 cells
Procedure: Add 5% Fetal Bovine Serum (FBS) to 96-well plate and fix the cells with 10% TCA after 24 hours of incubation and add the compound (T0). Add DMSO and culture for another 48 hours and the cells are fixed in 0.4% (W/V), 10% TCA and SRB, and […]. Excess SRB is washed off by 1% acetic acid and cells stained with SRB are dissolved in 10 mmol/L Trizma base. The absorbance is measured at 515 nm. The treatment time is 0 (T0), control growth (C) and the increase of the compound (Tx) in the cells are shown below and are used to calculate the increase of the concentration of the compound in percentage. Growth inhibition (GI %) is calculated using the following formula 100−[(TX−T0)/(C−T0)]×100. The 50% growth inhibition concentration (IC50) is used to confirm the concentration of compound and thus results in 50% reduction of the treated cells which control the amount of total protein.
This part of experimental results are SRB assays measuring cytotoxicity of the 26 synthesized compounds against human PC-3 cells and are summarized in Table 1 and 2.

786-0 = test: cells; details: 786-0 (Renal Cancer), 10 μM, 48 hours
MALME-3M = test: cells; details: MALME-3M (Melanoma), 10 μM, 48 hours
ACHN = test: cells; details: ACHN (Renal Cancer), 10 μM, 48 hours
UACC-62 = test: cells; details: UACC-62 (Melanoma), 10 μM, 48 hours
SNB-75 = test: cells; details: SNB-75 (CNS Cancer), 10 μM, 48 hours
RPMI-8226 = test: cells; details: RPMI-8226 (Leukemia), 10 μM, 48 hours
KM12 = test: cells; details: KM12 (Colon Cancer), 10 μM, 48 hours
UO-31 = test: cells; details: UO-31 (Renal Cancer), 10 μM, 48 hours
MDA-MB-435 = test: cells; details: MDA-MB-435 (Melanoma), 10 μM, 48 hours
RXF 393 = test: cells; details: RXF 393 (Renal Cancer), 10 μM, 48 hours
OVCAR-4 = test: cells; details: OVCAR-4 (Ovarian Cancer), 10 μM, 48 hours
SNB-19 = test: cells; details: SNB-19 (CNS Cancer), 10 μM, 48 hours
MOLT-4 = test: cells; details: MOLT-4 (Leukemia), 10 μM, 48 hours
NCI-H226 = test: cells; details: NCI-H226 (Non-Small Cell Lung Cancer), 10 μM, 48 hours
MDA-MB-468 = test: cells; details: MDA-MB-468 (Breast Cancer), 10 μM, 48 hours
U251 = test: cells; details: U251 (CNS Cancer), 10 μM, 48 hours

Compound: O=C1c2cc(Cl)ccc2-c2c(N3CCN(c4ccccc4)CC3)nc3ccccc3c21 [SJ-16, 9-Chloro-6-(4-phenylpiperazin-1-yl)-11H-indeno[1,2-c]quinolin-11-one]
- growth percentage (SW-620): 93.14%
- growth percentage (IGROV1): 65.13%
- growth percentage (T-47D): 75.93%
- growth percentage (MCF7): 53.31%
- growth percentage (SN12C): 87.90%
- growth percentage (K-562): 95.17%
- Mean (mean growth percentage of the tested cancer cell lines) [1]: 87.29%
- growth percentage (SK-MEL-28): 104.82%
- growth percentage (A498): 97.48%
- growth percentage (UACC-257): 98.40%
- growth percentage (SK-OV-3): 78.58%
- growth percentage (HT29): 82.40%
- growth percentage (HCT-15): 80.71%
- Toxicity (%) (human PC-3 cells): 0%
- GI % (10 μM) (human PC-3 cells): 65.91%
- growth percentage (786-0): 81.41%
- growth percentage (MALME-3M): 100.05%
- growth percentage (ACHN): 68.58%
- growth percentage (UACC-62): 87.17%
- growth percentage (SNB-75): 33.20%
- growth percentage (RPMI-8226): 95.33%
- growth percentage (KM12): 98.34%
- growth percentage (UO-31): 65.02%
- growth percentage (MDA-MB-435): 99.55%
- growth percentage (RXF 393): 72.95%
- growth percentage (OVCAR-4): 90.32%
- growth percentage (SNB-19): 88.40%
- growth percentage (MOLT-4): 98.13%
- growth percentage (NCI-H226): 79.43%
- growth percentage (MDA-MB-468): 95.37%

Compound: O=C1c2cc(Cl)ccc2-c2c(N3CCN(C4CCCC4)CC3)nc3ccccc3c21 [SJ-14, 9-Chloro-6-(4-cyclopentylpiperazin-1-yl)-11H-indeno[1,2-c]quinolin-11-one]
- growth percentage (SW-620): 93.06%
- growth percentage (IGROV1): 85.84%
- growth percentage (T-47D): 92.20%
- growth percentage (MCF7): 75.18%
- growth percentage (SN12C): 99.08%
- growth percentage (K-562): 99.26%
- Mean (mean growth percentage of the tested cancer cell lines) [1]: 96.53%
- growth percentage (SK-MEL-28): 107.58%
- growth percentage (A498): 88.64%
- growth percentage (UACC-257): 98.37%
- growth percentage (SK-OV-3): 96.85%
- growth percentage (HT29): 93.22%
- growth percentage (HCT-15): 89.64%
- Toxicity (%) (human PC-3 cells): 0%
- GI % (10 μM) (human PC-3 cells): 96.26%
- growth percentage (786-0): 97.90%
- growth percentage (MALME-3M): 92.48%
- growth percentage (ACHN): 100.03%
- growth percentage (UACC-62): 95.06%
- growth percentage (SNB-75): 86.36%
- growth percentage (RPMI-8226): 94.89%
- growth percentage (KM12): 99.33%
- growth percentage (UO-31): 72.57%
- growth percentage (MDA-MB-435): 99.93%
- growth percentage (RXF 393): 95.60%
- growth percentage (OVCAR-4): 94.20%
- growth percentage (SNB-19): 95.06%
- growth percentage (MOLT-4): 98.39%
- growth percentage (NCI-H226): 92.80%
- growth percentage (MDA-MB-468): 103.99%

Compound: CC1CCN(c2nc3ccccc3c3c2-c2ccc(Cl)cc2C3=O)CC1 [SJ-6, 9-Chloro-6-(4-methylpiperidin-1-yl)-11H-indeno[1,2-c]quinolin-11-one]
- growth percentage (SW-620): 88.89%
- growth percentage (IGROV1): 94.36%
- growth percentage (T-47D): 67.68%
- growth percentage (MCF7): 64.65%
- growth percentage (SN12C): 99.08%
- growth percentage (K-562): 103.57%
- Mean (mean growth percentage of the tested cancer cell lines) [1]: 96.2%
- growth percentage (SK-MEL-28): 105.21%
- growth percentage (A498): 87.55%
- growth percentage (UACC-257): 106.47%
- growth percentage (SK-OV-3): 99.78%
- growth percentage (HT29): 104.84%
- growth percentage (HCT-15): 97.78%
- Toxicity (%) (human PC-3 cells): 0%
- GI % (10 μM) (human PC-3 cells): 89.81%
- growth percentage (786-0): 102.73%
- growth percentage (MALME-3M): 98.31%
- growth percentage (ACHN): 94.75%
- growth percentage (UACC-62): 93.36%
- growth percentage (SNB-75): 84.42%
- growth percentage (RPMI-8226): 97.99%
- growth percentage (KM12): 94.80%
- growth percentage (UO-31): 76.25%
- growth percentage (MDA-MB-435): 104.53%
- growth percentage (RXF 393): 97.51%
- growth percentage (OVCAR-4): 97.11%
- growth percentage (SNB-19): 103.87%
- growth percentage (MOLT-4): 94.41%
- growth percentage (NCI-H226): 94.59%
- growth percentage (MDA-MB-468): 97.12%

Compound: COc1cccc(N2CCN(c3nc4ccccc4c4c3-c3ccc(Cl)cc3C4=O)CC2)c1 [SJ-20, 9-Chloro-6-(4-(3-methoxyphenyl)piperazin-1-yl)-11H-indeno[1,2-c]quinolin-11-one]
- growth percentage (SW-620): 91.16%
- growth percentage (IGROV1): 80.87%
- growth percentage (T-47D): 86.68%
- growth percentage (MCF7): 77.46%
- growth percentage (SN12C): 88.17%
- growth percentage (K-562): 94.25%
- Mean (mean growth percentage of the tested cancer cell lines) [1]: 92.15%
- growth percentage (SK-MEL-28): 103.93%
- growth percentage (A498): 104.53%
- growth percentage (UACC-257): 93.79%
- growth percentage (SK-OV-3): 86.02%
- growth percentage (HT29): 95.93%
- growth percentage (HCT-15): 100.39%
- Toxicity (%) (human PC-3 cells): 0%
- GI % (10 μM) (human PC-3 cells): 98.05%
- growth percentage (786-0): 81.67%
- growth percentage (MALME-3M): 92.79%
- growth percentage (ACHN): 93.51%
- growth percentage (UACC-62): 86.44%
- growth percentage (SNB-75): 37.76%
- growth percentage (RPMI-8226): 93.63%
- growth percentage (KM12): 105.95%
- growth percentage (UO-31): 86.64%
- growth percentage (MDA-MB-435): 100.75%
- growth percentage (RXF 393): 78.38%
- growth percentage (OVCAR-4): 87.08%
- growth percentage (SNB-19): 105.27%
- growth percentage (MOLT-4): 95.46%
- growth percentage (NCI-H226): 89.19%
- growth percentage (MDA-MB-468): 101.04%

Compound: O=C1c2cc(Cl)ccc2-c2c(O)nc3ccccc3c21 [SJ-26, 6-Hydroxy-9-chloro-11H-indeno[1,2-c]quinolin-11-one]
- growth percentage (SW-620): 95.26%
- growth percentage (IGROV1): 91.28%
- growth percentage (T-47D): 67.23%
- growth percentage (MCF7): 68.09%
- growth percentage (SN12C): 96.69%
- growth percentage (K-562): 97.48%
- Mean (mean growth percentage of the tested cancer cell lines) [1]: 96.60%
- growth percentage (SK-MEL-28): 100.02%
- growth percentage (UACC-257): 106.31%
- growth percentage (HT29): 102.38%
- growth percentage (HCT-15): 108.54%
- growth percentage (786-0): 114.55%
- growth percentage (MALME-3M): 103.37%
- growth percentage (ACHN): 104.75%
- growth percentage (UACC-62): 95.17%
- growth percentage (SNB-75): 80.33%
- growth percentage (RPMI-8226): 90.60%
- growth percentage (KM12): 102.73%
- growth percentage (UO-31): 70.50%
- growth percentage (MDA-MB-435): 100.35%
- growth percentage (U251): 96.46%
- growth percentage (RXF 393): 99.93%
- growth percentage (OVCAR-4): 80.74%
- growth percentage (SNB-19): 99.28%
- growth percentage (MOLT-4): 95.10%
- growth percentage (NCI-H226): 85.66%
- growth percentage (MDA-MB-468): 80.08%
